Data as given in PMC3056768, “Conjugation to the Cell-Penetrating Peptide TAT Potentiates the Photodynamic Effect of Carboxytetramethylrhodamine” (PLoS ONE, 2011).
Entries after “also recorded” stand apart in the source; their conditions may differ. Read-outs that look alike come from different tables or passages of the source.

Key:
red blood cells (RBCs) = type: cell-based
Method: Supplementary file pone.0017732.s005.tif: Figure S5 A) Photohemolysis of RBCs with TMR-TAT. Short light exposure tat 560 nm to RBCs incubated with TMR-TAT (3 µM) causes lysis and formation of ghost cells as observed by bright field imaging. Lysis of more than 90% of the cells can be achieved when light exposure is increased. Initially, the ghosts formed appear to have a constant diameter as shown in the images corresponding to exposure at 20 J/cm^2 and 60 J/cm^2. As light exposure is increased, the ghosts shrink to a much smaller diameter (120 J/cm^2 image). This shrinkage was not observed when the ghosts formed by irradiation with 60 J/cm^2 of light were incubated without additional light irradiation (data not shown). […] The RBCs were then spun down at low speed and the supernatant was removed from the pelleted cells. Cells were rapidly washed with cold PBS (4°C) and spun down twice. Images are the bright field and TMR confocal fluorescence images before and after washing of the RBCs. During incubation, the interior of RBCs display a dark contrast when compared to the fluorescent peptide present in solution. After washing the cells, no appreciable TMR fluorescence could be detected. It is important to note that RBCs have a weak autofluorescence signal in the TMR channel. […]

HeLa cells [1] = experiment: Photo-induced activity as a function of time in the endocytic pathway (endocytic degradation); type: cell-based, human; settings: 3 µM 1 h, washed, read-out of endocytic degradation
Method: One would expect that TMR-TAT would accumulate within late endosomes and lysosomes over time and that the TAT moiety might be degraded by proteases present in these organelles. If TAT is required for the lytic activity of TMR-TAT, degradation of the peptide should therefore abolish the activity of the compound. On the other hand, riTAT should be resistant to proteolysis and its lytic activity should not be dependent on the incubation time. HeLa cells were treated with TMR-TAT or TMR-riTAT for 1 hour to allow for endocytosis. The cells were then washed and incubated for an additional 1, 4, or 8 hours in L-15 media to allow for the accumulation of the endocytosed peptides into late endosomes and lysosomes. The cells were then observed under the microscope and treated with light as described in the previous paragraph.
Figure 3 Degradation of TMR-TAT in endocytic organelles abolishes photo-induced endosomal release and photocytotoxicity. HeLa cells were incubated with TMR-TAT or TMR-riTAT (3 µM) for 1 h, washed, and incubated at 37°C for an additional 1, 4 or 8 hours. […] The histogram represents the average percentage of cells stained by SYTOX® Blue after peptide and light treatment (the number of cells examined is at least 3000) and the error bars represent the standard deviation (experiments were reproduced at least 3 times).

HeLa cells [2] = experiment: Photocytotoxicity of endocytosed peptide after light irradiation (SYTOX Blue staining, membrane blebbing); type: cell-based
Method: HeLa (human cervical adenocarcinoma), COS-7 (SV40 transformed African green monkey kidney fibroblast-like cell line) were obtained from ATCC. COLO 316 (human ovarian carcinoma) were obtained from Robert Burghardt (Department of Veterinary Integrative Biosciences, Texas A&M University). Cells were cultured in DMEM supplemented with 10% fetal bovine serum (FBS) and maintained at 37°C in a humidified environment with 5% CO2. Cells were plated in 8-well dishes so that the cells were 70% confluent after 24 h, washed 3 times with L-15 media, incubated with 3 to 10 µM peptides at 37°C for 1 h, washed 3 times with L-15, and imaged. Alternatively, cells were incubated in L-15 at 4°C to inhibit the endocytic uptake of peptides. In this case, cells were imaged with the peptide still present in solution and the low temperature was maintained for the entire duration of imaging. For photosensitization, cells were exposed to light (λex = 560±20 nm) for the indicated time points. Plasma membrane disruption was detected by addition of the cell-impermeable DNA stain SYTOX Blue (5 µM) during or after photosensitization.
Ten to twenty images were acquired for each experiment.
Irradiances at the specimen were 100 mW/cm^2 when no neutral density filter and no objective were present in the light path (and, for instance 5 mW/cm^2 when ND4 was inserted). Irradiances were measured using a monochromic photometer (model 840-c, Newport, Irvine, CA). Irradiation area has a diameter of 1.3 cm without objective but the light beam is focused into an area of 3×10^−3 cm^2 by the 100× objective. Irradiances can therefore be approximated to be at […] with ND4 or ND1, respectively. Irradiances provided in the figure legends are based on these calculations. To confirm that the irradiances measured on the microscope were accurate, experiments were also reproduced, when possible, using light illumination with a collimated light source from Oriel (Stratford, CT) equipped with a 500 W Hg lamp. Selective irradiation at 560 nm was performed using an analytical line filter (Oriel, 9.4 nm bandwidth). In this case, irradiances of the light beam (diameter of 2.5 cm) could be measured more precisely using the monochromic photometer.

CN(C)c1ccc2c(c1)Oc1cc(N(C)C)ccc1C21OC(=O)c2cc(C(=O)NCC(=O)N[C@@H](CCCNC(=N)N)C(=O)N[C@@H](CCCCN)C(=O)N[C@@H](CCCCN)C(=O)N[C@@H](CCCNC(=N)N)C(=O)N[C@@H](CCCNC(=N)N)C(=O)N[C@@H](CCC(N)=O)C(=O)N[C@@H](CCCNC(=N)N)C(=O)N[C@@H](CCCNC(=N)N)C(=O)N[C@@H](CCCNC(=N)N)C(=O)NCC(N)=O)ccc21 [TMR-TAT]
penetration into RBCs (red blood cells (RBCs); 10 µM in PBS for 1 hour, washed with cold PBS, confocal fluorescence): does not penetrate RBCs to a large extent
penetration into RBCs (red blood cells (RBCs); 1 to 5 µM): do not penetrate RBCs
photo-induced endosomal release and cell-death after additional incubation (HeLa cells [1]; additional 1 hour at 37°C in L-15 before irradiation): observed
photo-induced endosomal release and cell-death after additional incubation (HeLa cells [1]; additional 4 h at 37°C in L-15 before irradiation): reduced
photo-induced endosomal release and cell-death after additional incubation (HeLa cells [1]; additional 8 h at 37°C in L-15 before irradiation): completely abolished
cell destruction, percentage of irradiated cells (SYTOX Blue staining) (HeLa cells [2]; endocytosed peptide, 2 sec irradiation at 560 nm, radiant exposure approx. 40 J/cm^2, at least 3000 cells, reproduced at least 3 times): more than 95%
photocytotoxicity / cell death after irradiation at 560 nm (HeLa cells [2]; incubation 1 h 37°C (3 µM; TMR-K9 10 µM), washed, irradiated at 560±20 nm): rapid necrosis; also recorded: plasma membrane damage and cell death
